According to PubChem BioAssay (NCI):
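Five concentrations, 48 hours, 96-well plates. TGI marks complete inhibition of growth.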

Assays:
Experiment in all cases: DTP human tumour cell line panel, 48 h
MCF7 breast = test system: MCF7 breast
UO-31 renal = test system: UO-31 renal
LOX IMVI melanoma = test system: LOX IMVI melanoma
SK-MEL-28 melanoma = test system: SK-MEL-28 melanoma
MALME-3M melanoma = test system: MALME-3M melanoma
HL-60(TB) leukemia = test system: HL-60(TB) leukemia
HOP-62 NSCLC = test system: HOP-62 NSCLC
A498 renal = test system: A498 renal
786-0 renal = test system: 786-0 renal
PC-3 prostate = test system: PC-3 prostate
SN12C renal = test system: SN12C renal
RPMI-8226 leukemia = test system: RPMI-8226 leukemia
HT29 colon = test system: HT29 colon
UACC-62 melanoma = test system: UACC-62 melanoma
SW-620 colon = test system: SW-620 colon
COLO 205 colon = test system: COLO 205 colon
U251 CNS = test system: U251 CNS
NCI-H23 lung = test system: NCI-H23 lung
RXF 393 renal = test system: RXF 393 renal
SR leukemia = test system: SR leukemia
TK-10 renal = test system: TK-10 renal
CCRF-CEM leukemia = test system: CCRF-CEM leukemia
HS 578T breast = test system: HS 578T breast
BT-549 breast = test system: BT-549 breast
SNB-75 CNS = test system: SNB-75 CNS
MDA-N = test system: MDA-N
SF-295 CNS = test system: SF-295 CNS
MOLT-4 leukemia = test system: MOLT-4 leukemia
T-47D breast = test system: T-47D breast
SF-539 CNS = test system: SF-539 CNS
K-562 leukemia = test system: K-562 leukemia
NCI-H522 lung = test system: NCI-H522 lung
OVCAR-5 ovarian = test system: OVCAR-5 ovarian
CAKI-1 renal = test system: CAKI-1 renal
HCT-116 colon = test system: HCT-116 colon
SK-OV-3 ovarian = test system: SK-OV-3 ovarian
SK-MEL-5 melanoma = test system: SK-MEL-5 melanoma
A549 NSCLC = test system: A549 NSCLC
SK-MEL-2 melanoma = test system: SK-MEL-2 melanoma
ACHN renal = test system: ACHN renal
OVCAR-3 ovarian = test system: OVCAR-3 ovarian
HCT-15 colon = test system: HCT-15 colon
NCI/ADR-RES ovarian = test system: NCI/ADR-RES ovarian
NCI-H460 lung = test system: NCI-H460 lung
M14 melanoma = test system: M14 melanoma
MDA-MB-435 = test system: MDA-MB-435
SF-268 CNS = test system: SF-268 CNS
HOP-92 NSCLC = test system: HOP-92 NSCLC
NCI-H226 lung = test system: NCI-H226 lung
OVCAR-8 ovarian = test system: OVCAR-8 ovarian
DU-145 prostate = test system: DU-145 prostate
KM12 colon = test system: KM12 colon
OVCAR-4 ovarian = test system: OVCAR-4 ovarian
SNB-19 CNS = test system: SNB-19 CNS
MDA-MB-231 breast = test system: MDA-MB-231 breast
IGROV1 ovarian = test system: IGROV1 ovarian
EKVX NSCLC = test system: EKVX NSCLC
UACC-257 melanoma = test system: UACC-257 melanoma

Measured: TGI

OCCCNCc1ccncc1
not listed: UACC-257 melanoma
> 100 µM: all other assays above

CN1CCN(CC(=O)N2c3ccccc3Sc3cc4ccccc4cc32)CC1
25.5 µM: EKVX NSCLC
31.6 µM: MCF7 breast | UACC-62 melanoma
27 µM: RXF 393 renal
16.4 µM: HT29 colon
34.4 µM: NCI/ADR-RES ovarian
27.7 µM: MDA-MB-231 breast
40.1 µM: NCI-H23 lung
26.1 µM: OVCAR-3 ovarian
31.9 µM: NCI-H522 lung | SK-MEL-2 melanoma
25.2 µM: SN12C renal
28.4 µM: MALME-3M melanoma | MOLT-4 leukemia
26 µM: CAKI-1 renal
30.9 µM: SF-539 CNS
24.5 µM: UACC-257 melanoma
25.6 µM: SF-268 CNS
4.55 µM: HL-60(TB) leukemia
33.4 µM: LOX IMVI melanoma
33 µM: HOP-62 NSCLC
35.3 µM: SNB-19 CNS
28.9 µM: SK-MEL-28 melanoma
23.7 µM: MDA-MB-435
33.6 µM: K-562 leukemia
28.7 µM: U251 CNS
36.2 µM: COLO 205 colon
29.5 µM: TK-10 renal
29.1 µM: OVCAR-4 ovarian
36.5 µM: OVCAR-8 ovarian
27.8 µM: SNB-75 CNS
31.8 µM: KM12 colon
34.1 µM: RPMI-8226 leukemia
30.2 µM: BT-549 breast
24.6 µM: HOP-92 NSCLC
28.3 µM: HS 578T breast | SF-295 CNS
46.1 µM: T-47D breast
83.6 µM: CCRF-CEM leukemia
27.9 µM: A498 renal
32.8 µM: NCI-H460 lung | IGROV1 ovarian
22.4 µM: MDA-N
29 µM: M14 melanoma
26.7 µM: UO-31 renal
26.8 µM: 786-0 renal
34.7 µM: SK-MEL-5 melanoma | HCT-15 colon
31.2 µM: SR leukemia
27.6 µM: PC-3 prostate
42.8 µM: NCI-H226 lung
22.2 µM: HCT-116 colon
29.3 µM: DU-145 prostate
50.9 µM: SW-620 colon
29.8 µM: OVCAR-5 ovarian
30.3 µM: all other assays above

C/C(=N\NC(=O)c1ccncc1)c1ccccc1Cl
> 100 µM: all assays above

CN(C)CCNc1ccc(NCC[N+](C)(C)Cc2ccc([N+](=O)[O-])cc2)c2c1C(=O)c1ccccc1C2=O
13.6 µM: HL-60(TB) leukemia
not listed: CCRF-CEM leukemia | SF-539 CNS | K-562 leukemia | HCT-15 colon | NCI-H460 lung | OVCAR-4 ovarian | SNB-19 CNS
> 25 µM: all other assays above

c1ccc2c(CC3NCCN3)cccc2c1
not listed: UO-31 renal
> 100 µM: all other assays above
